pIC50: −log10 of the molar value. The source made the active and inactive calls. No cut-off for these calls is given here.
Columns and labels:
MCF7 [1] = test: Cytotoxicity against human MCF7 cells after 24 hrs by MTT assay; type: functional, cell-based; settings: MCF7, 24 h
A549 [2] = test: Cytotoxicity against human A549 cells after 24 hrs by MTT assay; type: functional, cell-based; settings: A549, 24 h
[3] = Cytotoxicity against human H460 cells after 24 hrs by MTT assay; type: functional, cell-based; settings: NCI-H460, 24 h
SK-OV-3 [4] = test: Cytotoxicity against human SKOV3 cells after 24 hrs by MTT assay; type: functional, cell-based; settings: SK-OV-3, 24 h
NCI-H460 [5] = test: Cytotoxicity against human H460 cells up to 10 uM after 24 hrs by MTT assay; type: functional, cell-based
SK-OV-3 [6] = test: Cytotoxicity against human SKOV3 cells up to 10 uM after 24 hrs by MTT assay; type: functional, cell-based
A549 [7] = test: Cytotoxicity against human A549 cells up to 10 uM after 24 hrs by MTT assay; type: functional, cell-based
MCF7 [8] = test: Cytotoxicity against human MCF7 cells up to 10 uM after 24 hrs by MTT assay; type: functional, cell-based
HT-29 = test: Cell cycle arrest in human HT-29 cells assessed as accumulation at G2/M phase at 50 uM after 24 hrs (reference value: 12%); type: functional
HCT-15 = test: Cell cycle arrest in human HCT15 cells assessed as accumulation at G2/M phase at 50 uM after 24 hrs (reference value: 17%); type: functional
MCF7 [9] = test: Cell cycle arrest in human MCF7 cells assessed as accumulation at G2/M phase at 10 uM after 24 hrs (reference value: 9%); type: functional
SJRH30 = test: Induction of ROS production in human Rh30 cells at 10 uM after 1 to 2 hrs relative to control; type: functional
SK-OV-3 [10] = test: Cytotoxicity against human SKOV3 cells up to 30 uM after 24 hrs by MTT assay; type: functional, cell-based
MCF7 [11] = test: Cytotoxicity against human MCF7 cells up to 30 uM after 24 hrs by MTT assay; type: functional, cell-based
NCI-H460 [12] = test: Cytotoxicity against human H460 cells up to 30 uM after 24 hrs by MTT assay; type: functional, cell-based
A549 [13] = test: Cytotoxicity against human A549 cells up to 30 uM after 24 hrs by MTT assay; type: functional, cell-based
SK-OV-3 [14] = test: Induction of apoptosis in human SKOV3 cells assessed as dead cells at IC50 after 24 hrs using Annexin V-PE/7AAD staining by flow cytometry (reference value: 0.7%); type: functional
SK-OV-3 [15] = test: Cell cycle arrest in human SKOV3 cells assessed as accumulation at G2/M phase at IC50 after 24 hrs using hypo propidium iodide staining by flow cytometry (reference value: 15.43%); type: functional
SK-OV-3 [16] = test: Induction of apoptosis in human SKOV3 cells assessed as early apoptotic cells at IC50 after 24 hrs using Annexin V-PE/7AAD staining by flow cytometry (reference value: 6.8%); type: functional
SK-OV-3 [17] = test: Cell cycle arrest in human SKOV3 cells assessed as accumulation at S phase at IC50 after 24 hrs using hypo propidium iodide staining by flow cytometry (reference value: 11.4%); type: functional
SK-OV-3 [18] = test: Induction of cell morphological changes in human SKOV3 cells assessed as cells with ruptured cell membranes at IC50 after 24 hrs by phase contrast microscope analysis; type: functional, cell-based
SK-OV-3 [19] = test: Induction of apoptosis in human SKOV3 cells assessed as live cells at IC50 after 24 hrs using Annexin V-PE/7AAD staining by flow cytometry (reference value: 83.4%); type: functional
[20] = Cytotoxicity against mouse NIH/3T3 cells assessed as cell viability at IC50 after 24 hrs by MTT assay; type: functional, NIH3T3
SK-OV-3 [21] = test: Induction of cell morphological changes in human SKOV3 cells assessed as cell shrinkage and development of bubble like blebs on membranes at IC50 after 24 hrs by phase contrast microscope analysis; type: functional, cell-based
SK-OV-3 [22] = test: Induction of ROS production in human SKOV3 cells at IC50 after 3 hrs using DCFDA dye by flow cytometry relative to control; type: functional
SK-OV-3 [23] = test: Induction of apoptosis in human SKOV3 cells assessed as apoptotic cells at IC50 after 24 hrs using Annexin V-PE/7AAD staining by flow cytometry (reference value: 9.0%); type: functional
SK-OV-3 [24] = test: Cell cycle arrest in human SKOV3 cells assessed as accumulation at G0/G1 phase at IC50 after 24 hrs using hypo propidium iodide staining by flow cytometry (reference value: 72.52%); type: functional

| Structure (SMILES) | pIC50 (MCF7 [1]) | pIC50 (A549 [2]) | pIC50 [3] | pIC50 (SK-OV-3 [4]) | also measured |
| --- | --- | --- | --- | --- | --- |
| C#CCn1c(=O)c(C=O)cc2ccccc21 | < 4.00 | < 4.00 | < 4.00 | < 4.00 | – |
| COc1cc(/C=C/C(O)=C/C(=O)/C=C/c2cc3ccccc3n(Cc3ccccc3)c2=O)ccc1O | – | – | – | – | Activity (NCI-H460 [5]): inactive; Activity (SK-OV-3 [6]): inactive; Activity (A549 [7]): inactive; Activity (MCF7 [8]): inactive |
| COc1cc(/C=C/C(=O)CC(=O)/C=C/c2ccc(O)c(OC)c2)ccc1O [CURCUMIN] | 4.49 | 4.22 | 4.08 | 4.36 | Activity (HT-29): 33%; Activity (HCT-15): 32%; Activity (MCF7 [9]): 28%; fold change (FC) (SJRH30): 1.5 |
| C#CCn1c(=O)c(/C=C/C(=O)/C=C(O)/C=C/c2ccc(O)c(OC)c2)cc2ccccc21 | 4.82 | 4.67 | 4.60 | 4.72 | – |
| C#CCn1c(=O)c(/C=C/C(=O)/C=C(O)/C=C/c2ccc(O)c(OC)c2)cc2cc(F)ccc21 | 4.60 | 4.39 | 4.35 | < 4.00 | – |
| O=Cc1cc2ccccc2[nH]c1=O | < 4.00 | < 4.00 | < 4.00 | < 4.00 | – |
| C#CCn1c(=O)c(C=O)cc2cc(Cl)ccc21 | < 4.00 | < 4.00 | < 4.00 | < 4.00 | – |
| O=C(/C=C(O)/C=C/c1cc2ccccc2[nH]c1=O)/C=C/c1cc2ccccc2[nH]c1=O | 4.50 | 4.16 | 4.20 | 4.47 | – |
| C#CCn1c(=O)c(C=O)cc2cc(F)ccc21 | < 4.00 | < 4.00 | < 4.00 | < 4.00 | – |
| C#CCn1c(=O)c(C=O)cc2cc(C)ccc21 | < 4.00 | < 4.00 | < 4.00 | < 4.00 | – |
| COc1cc(/C=C/C(O)=C/C(=O)/C=C/c2cc3ccccc3[nH]c2=O)ccc1O | – | – | – | – | Activity (NCI-H460 [5]): inactive; Activity (SK-OV-3 [6]): inactive; Activity (A549 [7]): inactive; Activity (MCF7 [8]): inactive |
| C#CCn1c(=O)c(/C=C/C(=O)/C=C(O)/C=C/c2ccc(O)c(OC)c2)cc2cc(OC)ccc21 | < 4.00 | 4.69 | 4.42 | 4.85 | – |
| C=CCn1c(=O)c(C=O)cc2ccccc21 | < 4.00 | < 4.00 | < 4.00 | < 4.00 | – |
| C#CCn1c(=O)c(C=O)cc2cc(OC)ccc21 | < 4.00 | < 4.00 | < 4.00 | < 4.00 | – |
| C#CCn1c(=O)c(/C=C/C(=O)/C=C(O)/C=C/c2ccc(O)c(OC)c2)cc2cc(Cl)ccc21 | – | – | – | – | Activity (SK-OV-3 [10]): inactive; Activity (MCF7 [11]): inactive; Activity (NCI-H460 [12]): inactive; Activity (A549 [13]): inactive |
| C=CCn1c(=O)c(/C=C/C(=O)/C=C(O)/C=C/c2ccc(O)c(OC)c2)cc2ccccc21 | 4.63 | 4.50 | – | 4.59 | Activity (NCI-H460 [12]): inactive |
| C#CCn1c(=O)c(/C=C/C(=O)/C=C(O)/C=C/c2ccc(O)c(OC)c2)cc2cc(C)ccc21 | 4.44 | 4.62 | 4.66 | 4.89 | Activity (SK-OV-3 [14]): 7.3%; Activity (SK-OV-3 [15]): 25%; Activity (SK-OV-3 [16]): 2.5%; Activity (SK-OV-3 [17]): 19.49%; Activity (SK-OV-3 [18]): Active; Activity (SK-OV-3 [19]): 27.7%; Activity [20]: 74.5%; Activity (SK-OV-3 [21]): Active; Activity (SK-OV-3 [22]): 61.5%; Activity (SK-OV-3 [23]): 62.5%; Activity (SK-OV-3 [24]): 54.43% |
| O=Cc1cc2ccccc2n(Cc2ccccc2)c1=O | 4.50 | < 4.00 | < 4.00 | < 4.00 | – |
